pIC50: −log10 of the molar value.
Assays:
HCT116 MTAP−/− = assay: Inhibition of cellular proliferation, 4 days, Cell Titer Glo, HCT116 MTAP−/−; format: cell-based; conditions: Homo sapiens, HCT-116, 96 h, IC50 bin with Max Inh., read-out: 4 Day Relative Growth Inhibition (MTAP −/−)
Procedure: (§1) Test compound impact on cancer cell growth was assessed by treating cancer cells with compound for 4 days and then measuring proliferation using an ATP-based cell proliferation readout (Cell Titer Glo, Promega Corporation).
(§2) In a typical assay an isogenic pair of HCT116 human colon carcinoma cell lines which vary only in MTAP deletion status (HCT116 MTAP+/+ and HCT116 MTAP−/−) were plated in 96-well dishes at appropriate cell density. Following 24 hours, cells were then treated with the candidate MAT2A inhibitor. Prior to addition to cells, the compound was first serially diluted in 100% DMSO, typically as a 3-fold serial dilution starting at 500× top dose with 10 dose points including DMSO only control. Compound was then transferred to a working stock plate in cell culture media by adding 5 μL of compound in DMSO to 495 μL of cell culture media. This working stock was then added to cells via a further 5-fold dilution, by adding 25 μL of working stock to 100 μL of cells in culture media. Following compound addition, cells were incubated at 37° C./5% CO2 for 4 days.
(§3) To measure inhibition of cellular proliferation, cells were allowed to equilibrate to room temperature for 30 minutes, and were then treated with 125 μL of Cell Titer Glo reagent. The plate was then covered with aluminum foil and shaken for 15 minutes to ensure complete mixing and full cell lysis. Luminescent signal was then measured using a plate-based luminometer Veritas version 1.9.2 using ATP standard curve to confirm assay reproducibility from run to run. This luminescence measure was converted to a proliferation index by subtracting from each data point the ATP luminescence signal measured from a bank (no cells) well and dividing by the ATP luminescence signal measured in 0.2% DMSO control well adjusted for signal in blank well. Compound activity was then represented as a percentage change in proliferation relative to a within-plate DMSO control against log 10 of compound concentration in molar (M) units.
(§4) Specific compounds disclosed herein were tested in the foregoing assay and they were determined to inhibit cellular proliferation with an IC50. See, Table 1 below.

[1] = system: SAM in HCT116 human colon carcinoma cell line with MTAP gene deleted (MTAP −/−); assay: Cellular assay of target engagement (SAM), LC-MS/MS, 72 hrs; format: cell-based; conditions: HCT-116, IC50 bin with Max Inh., read-out: Cell 72 h SAM Inhibition (MTAP −/−)
Procedure: Measurement of MAT2A activity in cells was made by direct quantitation of the abundance of the product of its enzymatic activity, SAM. Cancer cells were treated with candidate MAT2A inhibitors for a suitable incubation period, and the cells were then lysed using a reagent which quenched any further enzyme activity. Soluble metabolites including SAM were collected and SAM itself was directly measured from the lysate using quantitative LC-MS/MS.
A typical assay was performed using an HCT116 human colon carcinoma cell line which was genetically engineered to delete the MTAP gene (commercially available from Horizon Discovery). This cell line was utilized because it was determined that loss of the MTAP gene predicts sensitivity to MAT2A inhibitors. Cells were plated in 96-well dishes at appropriate cell density. Following 24 hours, cells were then treated with the candidate MAT2A inhibitor. Prior to addition to cells, the compound was first serially diluted in 100% DMSO, typically as a 3-fold serial dilution starting at 500× top dose with 10 dose points including DMSO only control. Compound was then transferred to a working stock plate in cell culture media by adding 5 μL of compound in DMSO to 495 μL of cell culture media. This working stock was then added to cells via a further 5-fold dilution, by adding 25 μL of working stock to 100 μL of cells in culture media. Following compound addition, cells were incubated at 37° C./5% CO2 for 72 hrs.
To quantitate SAM levels following compound treatment, cells were gently washed once in ammonium carbonate buffer (75 mM at pH 7.4), placed on dry ice, and lysed with metabolite extraction buffer (80% cold methanol and 20% water (v/v) with acetic acid at 1M final concentration with 200 ng/mL deuterated d3-SAM as internal control). Following centrifugation at 4° C. at 3,200 rpm for 30 minutes, the supernatant was collected and stored at −80° C. until analysis by Liquid Chromatography with tandem Mass Spectrometry (LC-MS/MS). LC-MS/MS analysis was performed using an API6500 Mass Spectrometer (Sciex, Framingham, Mass., USA) operating in positive ion spray mode and equipped with a Waters UPLC Acquity (Waters, Milford, Mass., USA) BEH Amide column. Multiple Reaction Monitoring data was acquired for SAM and the d3-SAM standard, using a mass transition pair at m/z 399.2→250.1 and 402.2→250.1, respectively. In a typical LC-MS/MS analysis, the initial flow rate was 0.5 ml/min of 25% mobile phase A (acetonitrile and water at 5:95 (v/v) with 1% formic acid and 10 mM ammonium acetate) and 75% mobile phase B (acetonitrile and water at 95:5 (v/v) with 1% formic acid and 10 mM ammonium acetate), 0.2-0.5 minutes with 75%-35% mobile phase B, 25%-65% mobile phase A, at 0.5 min 65% mobile phase A and 35% mobile phase B, 1.0-1.1 minutes with 35%-75% mobile phase B, 65%-25% mobile phase A, at 1.1 min 25% mobile phase A and 75% mobile phase B with a total run time of 1.5 minutes.
Specific compounds disclosed herein were tested in the foregoing assay and they were determined to inhibit SAM with an IC50. See, Table 1 below.

HCT116 MTAP+/+ = assay: Inhibition of cellular proliferation, 4 days, Cell Titer Glo, HCT116 MTAP+/+; format: cell-based; conditions: Homo sapiens, HCT-116, 96 h, IC50 bin with Max Inh., read-out: 4 Day Relative Growth Inhibition (MTAP +/+)
Procedure: as §1, §2, §3, §4

MAT2A homodimer = molecular target: T1, MAT2A homodimer (Homo sapiens, UniProt P31153); assay: MAT2A inhibition (biochemical, liberated phosphate, PiColorLock Gold); conditions: recombinant MAT2A homodimer; IC50 bin with Max Inh.; read-out: Enzyme Inhibition Bin
T1 construct: inferred from Ni sepharose purification with imidazole elution; made in house; host or cells: Sf9 insect cells, baculovirus (Bac to Bac, pFASTBAC1)
Outline: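 Baculovirus/Sf9-expressed, Ni-purified MAT2A (4 μg/mL) preincubated with compound 60 min at 25 °C in Tris pH 8.0/KCl/MgCl2 buffer. Reaction started with 500 μM ATP and 400 μM L-methionine (substrate-mix concentrations), run 60 min at 25 °C. Phosphate measured colorimetrically against a phosphate standard curve to give IC50.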

T1 sequence (P31153 whole entry): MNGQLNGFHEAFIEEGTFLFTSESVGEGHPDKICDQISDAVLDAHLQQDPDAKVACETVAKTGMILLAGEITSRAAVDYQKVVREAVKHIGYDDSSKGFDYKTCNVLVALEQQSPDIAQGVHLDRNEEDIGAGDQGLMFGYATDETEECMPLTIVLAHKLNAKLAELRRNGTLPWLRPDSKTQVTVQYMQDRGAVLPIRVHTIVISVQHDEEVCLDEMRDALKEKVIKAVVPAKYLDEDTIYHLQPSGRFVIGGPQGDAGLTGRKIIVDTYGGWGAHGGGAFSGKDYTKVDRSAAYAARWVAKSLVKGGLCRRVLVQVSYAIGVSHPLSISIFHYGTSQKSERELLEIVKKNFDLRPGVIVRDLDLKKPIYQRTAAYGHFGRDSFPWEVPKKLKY

SMILES	pIC50 (HCT116 MTAP−/−)	pIC50 [1]	pIC50 (HCT116 MTAP+/+)	pIC50 (MAT2A homodimer)
CC(C)c1ccc(-c2c(=O)n(-c3ccc4nn(C)cc4c3)nc3c(C#N)cn(CC4CC4)c23)cn1 [Example 128, 5-(cyclopropylmethyl)-4-(6-isopropylpyridin-3-yl)-2-(2-methyl-2H-indazol-5-yl)-3-oxo-3,5-dihydro-2H-pyrrolo[3,2-c]pyridazine-7-carbonitrile]	6.00 to 7.00	> 7.00	< 6.00	> 7.00
CC(C)c1ccc(-c2c(=O)n(-c3ccc4nn(C)cc4c3)nc3ccn(CC4CC4)c23)cn1 [Example 129, 5-(cyclopropylmethyl)-4-(6-isopropylpyridin-3-yl)-2-(2-methyl-2H-indazol-5-yl)-2,5-dihydro-3H-pyrrolo[3,2-c]pyridazin-3-one]	> 7.00	6.00 to 7.00	< 6.00	> 7.00
Cn1cc2cc(-n3nc4c(C#N)cn(CC5CC5)c4c(-c4ccc5[nH]cc(C#N)c5c4)c3=O)ccc2n1 [Example 130, 4-(3-cyano-1H-indol-5-yl)-5-(cyclopropylmethyl)-2-(2-methyl-2H-indazol-5-yl)-3-oxo-3,5-dihydro-2H-pyrrolo[3,2-c]pyridazine-7-carbonitrile]	6.00 to 7.00	> 7.00	< 6.00	> 7.00
[2H]C([2H])([2H])Oc1ccc(-n2nc3c(C#N)cn(CC4CC4)c3c(-c3ccc(C)nc3)c2=O)cc1 [Example 131, 5-(cyclopropylmethyl)-2-(4-(methoxy-d3)phenyl)-4-(6-methylpyridin-3-yl)-3-oxo-3,5-dihydro-2H-pyrrolo[3,2-c]pyridazine-7-carbonitrile]	6.00 to 7.00	> 7.00	< 6.00	> 7.00
[2H]C([2H])([2H])Oc1ccc(-n2nc3ccn(CC4CC4)c3c(-c3ccc(C(F)F)nc3)c2=O)cc1 [Example 132, 5-(cyclopropylmethyl)-4-(6-(difluoromethyl)pyridin-3-yl)-2-(4-(methoxy-d3)phenyl)-2,5-dihydro-3H-pyrrolo[3,2-c]pyridazin-3-one]	6.00 to 7.00	6.00 to 7.00	< 6.00	> 7.00
Cn1cc2cc(-n3nc4c(C#N)cn(CC(F)(F)F)c4c(-c4ccc(C5CC5)nc4)c3=O)ccc2n1 [Example 133, 4-(6-cyclopropylpyridin-3-yl)-2-(2-methyl-2H-indazol-5-yl)-3-oxo-5-(2,2,2-trifluoroethyl)-3,5-dihydro-2H-pyrrolo[3,2-c]pyridazine-7-carbonitrile]	6.00 to 7.00	6.00 to 7.00	< 6.00	> 7.00
[2H]C([2H])([2H])Oc1ccc(-n2nc3ccn(CC4CC4)c3c(-c3ccc(C)nc3)c2=O)cc1 [Example 134, 5-(cyclopropylmethyl)-2-(4-(methoxy-d3)phenyl)-4-(6-methylpyridin-3-yl)-2,5-dihydro-3H-pyrrolo[3,2-c]pyridazin-3-one]	6.00 to 7.00	> 7.00	< 6.00	> 7.00
CCc1ccc(-c2c(=O)n(-c3ccc4nn(C)cc4c3)nc3ccn(CC4CC4)c23)cn1 [Example 135, 5-(cyclopropylmethyl)-4-(6-ethylpyridin-3-yl)-2-(2-methyl-2H-indazol-5-yl)-2,5-dihydro-3H-pyrrolo[3,2-c]pyridazin-3-one]	> 7.00	> 7.00	6.00 to 7.00	> 7.00
CCc1ccc(-c2c(=O)n(-c3ccc4nn(C)cc4c3)nc3c(C#N)cn(CC4CC4)c23)cn1 [Example 136, 5-(cyclopropylmethyl)-4-(6-ethylpyridin-3-yl)-2-(2-methyl-2H-indazol-5-yl)-3-oxo-3,5-dihydro-2H-pyrrolo[3,2-c]pyridazine-7-carbonitrile]	> 7.00	> 7.00	6.00 to 7.00	> 7.00
[2H]C([2H])([2H])Oc1ccc(-n2nc3c(C#N)cn(CC4CC4)c3c(-c3ccc(C(F)F)nc3)c2=O)cc1 [Example 137, 5-(cyclopropylmethyl)-4-(6-(difluoromethyl)pyridin-3-yl)-2-(4-(methoxy-d3)phenyl)-3-oxo-3,5-dihydro-2H-pyrrolo[3,2-c]pyridazine-7-carbonitrile]	6.00 to 7.00	6.00 to 7.00	< 6.00	> 7.00
Cn1cc2cc(-n3nc4c(C#N)cn(CC5CC5)c4c(-c4ccc(C5CC5)cc4)c3=O)ccc2n1 [Example 138, 5-(cyclopropylmethyl)-4-(4-cyclopropylphenyl)-2-(2-methyl-2H-indazol-5-yl)-3-oxo-3,5-dihydro-2H-pyrrolo[3,2-c]pyridazine-7-carbonitrile]	> 7.00	> 7.00	< 6.00	> 7.00
Cn1cc2cc(-n3nc4c(C#N)cn(CC5CC5)c4c(-c4ccc(Cl)cc4)c3=O)ccc2n1 [Example 139, 4-(4-chlorophenyl)-5-(cyclopropylmethyl)-2-(2-methyl-2H-indazol-5-yl)-3-oxo-3,5-dihydro-2H-pyrrolo[3,2-c]pyridazine-7-carbonitrile]	> 7.00	> 7.00	> 7.00	> 7.00
Cc1nc2ccc(-n3nc4ccn(CC5CC5)c4c(-c4ccc(C(F)F)nc4)c3=O)cc2n1C [Example 140, 5-(cyclopropylmethyl)-4-(6-(difluoromethyl)pyridin-3-yl)-2-(1,2-dimethyl-1H-benzo[d]imidazol-6-yl)-2,5-dihydro-3H-pyrrolo[3,2-c]pyridazin-3-one]	> 7.00	> 7.00	6.00 to 7.00	> 7.00
Cc1ccc(-c2c(=O)n(-c3ccc4nc(C)n(C)c4c3)nc3ccn(CC4CC4)c23)cn1 [Example 141, 5-(cyclopropylmethyl)-2-(1,2-dimethyl-1H-benzo[d]imidazol-6-yl)-4-(6-methylpyridin-3-yl)-2,5-dihydro-3H-pyrrolo[3,2-c]pyridazin-3-one]	> 7.00	> 7.00	6.00 to 7.00	> 7.00

Source: US20220169654A1, “New Organic Compounds” (Servier Pharmaceuticals LLC, priority 2020, published 2022)
